Patent US20020094522A1, “Means and methods for monitoring non-nucleoside reverse transcriptase inhibitor antiretroviral therapy and guiding therapeutic decisions in the treatment of HIV/AIDS” (priority 2000, published 2002)

Test system: RTV-268 (patient sample 97-268; P236L)
Test: Phenotypic susceptibility assay, RTV-268
Type: cell-based, HIV-1
Details: RTV-268 / patient 268
Text: The resistance test vectors containing a functional luciferase gene cassette were constructed and host cells were transfected with the resistance test vector DNA. The resistant test vectors contained patient-derived reverse transcriptase and protease sequences that were either susceptible or resistant to the antiretroviral agents, such as nucleoside reverse transcriptase inhibitors, non-nucleoside reverse transcriptase inhibitors and protease inhibitors. The resistance test vector viral particles produced by transfecting the resistance test vector DNA into host cells, either in the presence or absence of protease inhibitors, were used to infect target host cells grown either in the absence of NRTI or NNRTI or in the presence of increasing concentrations of the drug. The amount of luciferase activity produced in infected target host cells in the presence of drug was compared to the amount of luciferase produced in infected target host cells in the absence of drug. Drug resistance was measured as the amount of drug required to inhibit by 50% the luciferase activity detected in the absence of drug (inhibitory concentration 50%, IC50). The IC50 values were determined by plotting percent drug inhibition vs. log10 drug concentration.
Host cells were seeded in 10-cm-diameter dishes and were transfected several days after plating with resistance test vector plasmid DNA and the envelope expression vector. Transfections were performed using a calcium-phosphate precipitation procedure. The cell culture media containing the DNA precipitate was replaced with fresh medium, from one to 24 hours, after transfection. Cell culture media containing resistance test vector viral particles was harvested one to four days after transfection and was passed through a […] filter before being stored at −80° C. HIV capsid protein (p24) levels in the harvested cell culture media were determined by an EIA method as described by the manufacturer (SIAC; Frederick, Md.). Before infection, target cells (293 and 293/T) were plated in cell culture media. Control infections were performed using cell culture media from mock transfections (no DNA) or transfections containing the resistance test vector plasmid DNA without the envelope expression plasmid. One to three or more days after infection the media was removed and cell lysis buffer (Promega) was added to each well. […] The inhibitory effect of the drug was determined using the following equation: […]
where RLUluc [drug] is the relative light unit of luciferase activity in infected cells in the presence of drug and RLUluc is the Relative Light Unit of luciferase activity in infected cells in the absence of drug. IC50 values were obtained from the sigmoidal curves that were generated from the data by plotting the percent inhibition of luciferase activity vs. the log10 drug concentration.
A resistance test vector was constructed as described in Example 1 from a patient sample designated 97-268. […] Isolation of viral RNA and RT/PCR was used to generate a patient derived segment that comprised viral sequences coding for all of PR and amino acids 1-313 of RT. The patient derived segment was inserted into a indicator gene viral vector to generate a resistance test vector designated RTV-268. RTV-268 was then tested using the phenotypic susceptibility assay to determine accurately and quantitatively the level of susceptibility to a panel of anti-retroviral drugs. […] An IC50 was determined for each drug tested. Susceptibility of the patient virus to each drug was examined and compared to the susceptibility of a reference virus. […] The sample was examined further for genotypic changes associated with the pattern of susceptibility.

Structure (SMILES)	susceptibility/resistance compared to reference virus
Nc1ccn([C@@H]2CS[C@H](CO)O2)c(=O)n1 [3TC]	significant resistance
Cc1cn([C@H]2C[C@H](N=[N+]=[N-])[C@@H](CO)O2)c(=O)[nH]c1=O [AZT]	significant resistance
Cc1cn([C@H]2C=C[C@@H](CO)O2)c(=O)[nH]c1=O [d4T]	slight shifts in susceptibility
Nc1ccn([C@H]2CC[C@@H](CO)O2)c(=O)n1 [ddC]	slight shifts in susceptibility
O=c1[nH]cnc2c1ncn2[C@H]1CC[C@@H](CO)O1 [ddI]	slight shifts in susceptibility

Test system: T66I integrase site-directed mutant resistance test vector
Test: Phenotypic susceptibility assay, T66I integrase mutant vector
Type: cell-based, HIV
Details: T66I integrase mutant
Description: Transfections were performed using a calcium-phosphate precipitation procedure. […] Cell lysates were assayed for luciferase activity (FIG. 3).
The drug inhibition curves are shown in (FIG. 3).
A resistance test vector containing the threonine to isoleucine mutation at position 66 of the integrase protein (T66I) was constructed and tested using the phenotypic assay described earlier.

Structure (SMILES)	reduction in susceptibility compared to wild type control RTV [fold]
O=C(O)C(=O)CC(=O)c1cccn1Cc1ccc(F)cc1 [L-731,988]	4.7
